Measurements taken from patent US4000281A, “Pyrazole derivatives” (priority 1971, dated 1976).

System: rhinovirus type 7 (SF1470)
Test: Inhibition of rhinovirus cytopathogenic effect in human embryonic lung cultures, type 7
Type: cell-based
Conditions: 50 and 75 μgm/ml
Description: Other tests were carried out to determine the inhibitory effect of 3-(4-pyridyl)-4-(2-hydroxyphenyl)-5-ethylpyrazole on various types of rhinovirus.
In each test two cultures of human embryonic lung were prepared of which one was treated with the above compound while the other served as control. The cultures were then infected with a strain of rhinovirus. The compound was used in concentrations of 50 and 75 μgm/ml and was considered to be active if the cytopathogenic effect of the rhinovirus was reduced by at least 75% as compared to the control culture. This cytopathogenic effect was determined by counting the number of plaques formed by destroyed cells.
Seven human types of rhinovirus were employed and the following results registered: […]

## CCc1[nH]nc(-c2ccncc2)c1-c1ccccc1O [Compound A, 3-(4-pyridyl)-4-(2-hydroxyphenyl)-5-ethylpyrazole]
  ACTIVITY: + (active)
